Tests used:
SW480 cells [1] = experiment: Assay for cytotoxicity (trypan blue viability, 8 day static culture); format: cell-based, human; conditions: Table 13, protocol of Example 10
Experimental: 1. […] However, it should be understood that various types of cells vary in their sensitivity to different chemical compounds. Thus, while SW480 cells may be used as a convenient tool for determining biocompatible concentrations of the chemical compounds, it may be necessary to empirically adjust the concentrations determined with SW480 cells in order to optimize biocompatibility with other types of cells.
A number of chemical compounds were tested in 6-well plates according to the protocol described in Example 1 to determine the relationship between their cytotoxicity and their ability to promote the uptake and expression of foreign genes in SW480 cells. Unless otherwise noted, except for the control, all plates contained 4 mM L-glutamine as well as gentamicin to retard bacterial growth.
Cytotoxicity assays were performed as follows. SW480 cells (approximately 1×10^6 cells per well) were plated in 1 ml of RPMI in 6-well culture dishes at day zero in the presence of the chemical compound whose cytotoxicity was being tested. Twenty-four hours after seeding the wells, the RPMI medium was removed, and liposomes containing foreign DNA were added to the culture in 1 ml of OPTI-MEM medium, as described in Example 1. The transfection medium also contained the chemical compounds whose cytotoxicity was being tested. Control plates were included that were identical to the test plates, except that the test compounds were not present in the culture medium. Test and control cultures were grown under “static” conditions, i.e., the plates were not shaken, rotated, or otherwise agitated. Each day for a total of 8 days, the cells from one test well and one control well were harvested and viability assessed by staining with trypan blue. […] The chondroitin sulfate used here was as in Example 2.

SW480 cells [2] = experiment: Influence of polysaccharide size/type on transient expression (protocol of plate #6, polysaccharide substituted for chondroitin sulfate); format: cell-based, human; conditions: for FACTOR G / FACTOR K / FACTOR X / Total β-gal (ng) from 2 × 10^4 Cells in 14 Days: Table 13; for effectiveness in enhancing transient expression: running text of Example 10
Experimental: A 15 plate experiment was conducted in which the chemical compounds indicated in Table 9 were added to the culture medium of SW480 cells that were transfected in 6-well plates as detailed in Example 1. […] The chondroitin sulfate used for these experiments was as in Example 2. The most efficacious formulations, in order of their effectiveness, were those used in plates 6, 3, 13 and 14. […] The following experiments were conducted to determine the effects of polysaccharide size on their effectiveness in enhancing transient expression. […] The chondroitin sulfate used for these comparisons was obtained either from Biorelease, or was prepared by treating large (>20 kDa) chondroitin sulfate (Type A) with alkali, then acid. The size of the non-purchased preparations was determined by electrophoretic comparison with Biorelease 4 kDa chondroitin sulfate using PhastSystem gels in accord with the manufacturer's instructions (Pharmacia). The results are shown in Table 11, in which the ranges observed for X and […] in the four trials are shown in parentheses below the averages. […] Table 12 also presents the results of the Limulus amebocyte lysate (LAL) endotoxin assay, expressed as endotoxin units per ml (Eu/ml), which was performed on all media used before, during and after transfection, but before adding serum. This assay provides a quantitative measure for Gram-negative bacterial endotoxin in aqueous solutions. […] The LAL results in Table 12 are those for the post-transfection media, assayed prior to adding serum. All solutions used for these experiments were prepared in a hood using standard aseptic procedures.

[3] = tested on: SW480 P3 (ATCC #CCL228) human colon carcinoma cells; experiment: Screening assay for enhancement of transient expression (β-galactosidase gene, liposomal transfection, 6-well plates); format: cell-based; conditions: for G Factor (G14): Table 1, values without asterisk, days 4-14 after transfection; for X Factor / K Factor: Table 1; for X Factor: cumulative β-galactosidase vs control, first four days after transfection, compound at the mM given in the table; for K Factor: ratio of first order rate constants of change in expression, control vs compound
Excerpt: These parameters are called the “X” factor, the “G” factor, and the “K” factor. [formula]
This factor reflects the extent to which a chemical compound added to a transfected cell enhances stabilizes transient expression for the first four days following transfection. […] For example, if expression is doubled in the presence of a compound, […]. […] X may be calculated similarly when the agent in question is a mixture of more than one chemical compound.
Cumulative protein expression, i.e., the values for “A” and “C”, is measured by summing the values measured daily in aliquots of the cultured cells.
2. G factors. G factors differ from the X factor only with respect to the time period evaluated. For calculating a G factor, the amount of protein expressed is measured from days 4-7 or days 4-14, where day 0 is the day on which the foreign DNA is added to the cells. The subscripts denote which of the two time periods provided the basis for measurement. […] As for the X factor, [formula]
3. K factor. The K factor is the ratio of the rate constants for the change in the foreign DNA expression in control transfected cells and in cells exposed to a chemical compound of the subject invention. K is determined according to the following equation: [formula]
wherein “k(DNA)” is the first order rate constant for the change in concentration of the protein expressed from the transgenic DNA, which is expressing protein as a function of time, i.e., [formula]
Values for k(DNA) are derived by using a computer program that plots the log of the foreign protein concentration against time, using the results of transgenic protein measurements that begin about 24 hours after the foreign DNA has been added to the cell. […] However, the program calculates a “best fit” line for each data set, and determines the slope of that portion of the resulting line that corresponds to the period during which protein production is changing. […] Thus, the slope is calculated during this period of decline to provide values for k(DNA) and K that can be compared for the purpose of comparing the efficacy of different chemical compounds.
SW480 P3 (ATCC #CCL228) human colon carcinoma cells (typically, 1×10^6 cells) were plated in the wells of a 6-well tissue culture plate. The number of wells plated reflected the number of days post-transfection during which the experiment would proceed. Each well contained 1 ml of complete media from a 30 ml stock solution containing: 26.4 ml RPMI tissue culture medium, 4 mM L-glutamine, 3.0 ml fetal bovine serum, and 10 μg/ml gentamicin. Cells were cultured at 37° C. in a CO2 incubator with 10% CO2 for 24 hours after being plated, during which time the cells adhered to the plates.
After the 24 hour pre-incubation step, the transfection step was carried out by removing the RPMI and adding 900 μL OPTI-MEM® (Gibco) medium containing 2 μg of VR1412 DNA (Vical, Inc., San Diego, Calif.), which expresses the bacterial β-galactosidase gene under the control of a cytomegalovirus promoter, and 8 μg of a mixture of cationic lipid (1,2-dimyristyloxyproply-3-dimethyl-hydroxyethyl ammonium bromide (e.g., “DMRIE/DOPE”) mixed in equimolar proportions with dioleoylphosphatidylethanolamine) to yield a lipid:DNA molar ratio of 0.99:1. It should be noted that typical transient transfection protocols employ 10 μg DNA per 10^6 cells, but the protocol described here uses less DNA in order to reduce toxicity to the cells. The plates were then incubated for 4 hours at 37° C.
After the 4 hour incubation step, 100 μl of heat deactivated fetal bovine serum (to stop transfection), plus 12.0 μl of 50 mg/ml gentamicin were added to each well.

[4] = pH of aqueous solutions of the compounds; format: physicochemical; conditions: stock solutions prepared in culture media diluted with deionized water
Experimental: The pH values shown in Table 1 were determined in aqueous solutions made by diluting stock solutions prepared in culture media with deionized water.

[5] = Table 1, values marked with asterisk, days 4-7 after transfection

Row | pH (H20) [4] | Compound | G Factor (G14) [3] | X Factor [3] | K Factor [3] | other results
1 |  | CC(=O)N[C@H]1C(O)O[C@H](COS(=O)(=O)O)[C@H](O)[C@@H]1O[C@@H]1OC(C(=O)O)=C[C@H](O)[C@H]1O (stereo partly shown) [Chondro ΔDi-6S] |  |  |  | Cytotoxic (SW480 cells [1]): No; FACTOR G (SW480 cells [2]): 39.0; FACTOR K (SW480 cells [2]): 1.3; FACTOR X (SW480 cells [2]): −32.7; Total β-gal (ng) from 2 × 10^4 Cells in 14 Days (SW480 cells [2]): 932.2 ng; effectiveness in enhancing transient expression (SW480 cells [2]): better results than the controls
2 |  | O=C[C@@H](O)[C@@H](O)[C@H](O)[C@H](O)CO [Mannose] |  |  |  | Cytotoxic (SW480 cells [1]): No; FACTOR G (SW480 cells [2]): 23.5; FACTOR K (SW480 cells [2]): 1.0; FACTOR X (SW480 cells [2]): −23.6; Total β-gal (ng) from 2 × 10^4 Cells in 14 Days (SW480 cells [2]): 730.4 ng; effectiveness in enhancing transient expression (SW480 cells [2]): effective in enhancing transient expression
3 | 3.45 | MELANIN |  |  |  | effect on transient expression [3]: significantly suppress transient expression
4 | 4.19 | NC(=O)NC(CC(=O)O)C(=O)O (racemic) [N-CARBAMYL-DL-ASPARTIC ACID] | 115 | 26 |  | 
5 | 3.8 | Nc1cccc(S(=O)(=O)O)c1 [3-AMINO BENZENE SULFONIC ACID] | 32 | −19 |  | 
6 | 7.67 | Nc1ccc(C(=O)O)cc1 [4-AMINO-BENZOIC ACID] | −12 | 52, 52 | 1, 1 | G Factor (G7) [3, 5]: 96
7 | 7.24 | N[C@@H](CS)C(=O)O [CYSTEINE] | −50 | −35 |  | 
8 |  | CC(=O)N[C@H]1C(O)O[C@H](CO)[C@H](OS(=O)(=O)O)[C@@H]1O[C@@H]1OC(C(=O)O)=C[C@H](O)[C@H]1O (stereo partly shown) [Chondro ΔDi-4S] |  |  |  | Cytotoxic (SW480 cells [1]): Yes; Cytotoxic (SW480 cells [1]; listed as disaccharide units derived from Type A): cytotoxic; FACTOR G (SW480 cells [2]): 40.1; FACTOR K (SW480 cells [2]): 0.4; FACTOR X (SW480 cells [2]): −28.2; Total β-gal (ng) from 2 × 10^4 Cells in 14 Days (SW480 cells [2]): 184.7 ng
9 | 7.54 | CN(CC(=O)O)C(=N)N [CREATINE] | 28 | 0.34 |  | 
10 | 10.29 | CNCC(O)c1ccc(O)c(O)c1 (stereo not shown) [ADRENALINE] | 68 | 49 |  | pH (H20) ([4]; listed as adrenaline): ~10
11 | 3.58 | N[C@@H](CCC(=O)N[C@@H](CS)C(=O)NCC(=O)O)C(=O)O [GLUTATHIONE] | 34 | 2 | 1 | pH (H20) ([4]; listed as glutathione): ~3
12 | 6.44 | CCOC(=O)CC[C@H](NCc1ccc(N)cc1)C(=O)OCC [N-(4-AMINOBENZYL)-L-GLUTAMIC DIETHYLESTER] | 8 | −35 |  | 
13 | 7.4 | N[C@@H](CCO)C(=O)O [HOMOSERINE] | 39 | 77 |  | 
14 | 6.75 | N[C@@H](Cc1c[nH]cn1)C(=O)O [HISTIDINE] | 6 |  | 1, 1 | G Factor (G7) [3, 5]: 54
15 | 7.14 | NC(=O)CC[C@H](N)C(=O)O [L-GLUTAMINE] | 23 | −13 |  | 
16 | 7.27 | C[C@H](N)C(=O)O [α-ALANINE] | 35 | 31 |  | 
17 | 4.34 | CSCC[C@H](NC=O)C(=O)O [N-FORMYL-L-METHIONINE] | 63 | 26 |  | 
18 | 7.27 | NCC(=O)O [GLYCINE] | 40 | −.34 | 2 | 
19 | 6.99 | CC[C@H](C)[C@H](N)C(=O)O [ISOLEUCINE] | 30 | −119 |  | 
20 | 6.46 | O=C(O)CNC(=O)c1ccccc1 [HIPPURIC ACID] | 33 | 2 | 1 | 

Row | Compound | pH (H20) [4] | G Factor (G14) [3] | X Factor [3] | K Factor [3] | other results
21 | O=C(O)c1ccccc1 [BENZOIC ACID] | 4.21 | 28 | −3.1 | 1 | 
22 | O=C(O)CCCC(=O)O [GLUTARIC ACID] | 3.85 | −77 | 22 |  | 
23 | N[C@@H](Cc1c[nH]c2ccccc12)C(=O)O [TRYPTOPHAN] | 6.25 | 67 | 55 | 2 | 
24 | NC(=O)NCCC[C@H](N)C(=O)O [CITRULLINE] | 7.71 | 46 | 39 | 1 | 
25 | NCCCC[C@H](N)C(=O)O [L-LYSINE] | 8.34 | −10 |  |  | G Factor (G7) ([3]; Table 1, days 4-7 after transfection): 9

Source: patent US20030073654A1, “Stabilized transient gene expression” (Genespan Corporation, priority 1996, published 2003)
